Common to all, as to type: functional
Assay [1] has as its target Dual specificity tyrosine-phosphorylation-regulated kinase 1A (Homo sapiens, UniProt Q13627).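 Also: measured against DYRK1A as one member of a broad kinome profiling panel.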
Assay [2] deals with Insulin-like growth factor 1 receptor (Homo sapiens, UniProt P08069). Briefly: Navigating the Kinome. Panel member name: IGF1R.
Assay [3] addresses Serine/threonine-protein kinase TBK1 (Homo sapiens, UniProt Q9UHD2). Briefly: Navigating the Kinome. Panel member name: TBK1.
Assay [4] deals with Macrophage-stimulating protein receptor (Homo sapiens, UniProt Q04912). In words: Navigating the Kinome. Panel member name: MST1R.
For assay [5], the target named is cAMP-dependent protein kinase catalytic subunit PRKX (Homo sapiens, UniProt P51817).
Assay [6] has as its target Dual specificity tyrosine-phosphorylation-regulated kinase 1B (Homo sapiens, UniProt Q9Y463). Briefly: Navigating the Kinome. Panel member name: DYRK1B.
Assay [7] concerns the target Receptor-type tyrosine-protein kinase FLT3 (Homo sapiens, UniProt P36888).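 Also: FLT3 was tested as one member of a kinome-wide kinase panel.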
In assay [8] the target is Serine/threonine-protein kinase PAK 4 (Homo sapiens, UniProt O96013).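 Also: value obtained within a kinome profiling panel in which PAK4 was one of the panel members.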
Serine/threonine-protein kinase PAK 4, sequence (O96013 whole entry): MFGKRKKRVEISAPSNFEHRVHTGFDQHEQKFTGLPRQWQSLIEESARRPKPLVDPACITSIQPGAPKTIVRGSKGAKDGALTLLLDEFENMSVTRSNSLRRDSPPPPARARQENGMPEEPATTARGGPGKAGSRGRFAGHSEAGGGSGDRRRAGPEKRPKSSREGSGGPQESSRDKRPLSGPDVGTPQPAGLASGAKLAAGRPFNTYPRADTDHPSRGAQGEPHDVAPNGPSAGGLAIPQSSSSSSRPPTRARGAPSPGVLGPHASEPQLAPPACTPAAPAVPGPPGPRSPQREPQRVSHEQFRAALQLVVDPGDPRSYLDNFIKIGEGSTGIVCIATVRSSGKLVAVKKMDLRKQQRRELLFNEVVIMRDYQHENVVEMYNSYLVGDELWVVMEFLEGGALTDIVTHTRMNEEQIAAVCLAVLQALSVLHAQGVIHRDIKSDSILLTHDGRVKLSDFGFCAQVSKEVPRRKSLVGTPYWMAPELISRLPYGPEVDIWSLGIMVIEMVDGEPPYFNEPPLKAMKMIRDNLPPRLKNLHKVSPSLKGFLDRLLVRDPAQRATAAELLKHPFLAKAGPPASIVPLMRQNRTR
In assay [9] the target is Macrophage colony-stimulating factor 1 receptor (Homo sapiens, UniProt P07333).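 Also: value comes from the Navigating the Kinome screening panel, CSF1R member.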
Assay [10] concerns the target Glycogen synthase kinase-3 alpha (Homo sapiens, UniProt P49840).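 Also: GSK3A result taken from a broad kinome-wide kinase panel.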
Assay [11] has as its target Fibroblast growth factor receptor 1 (Homo sapiens, UniProt P11362).
Assay [12] has as its target Tyrosine-protein kinase Fyn (Homo sapiens, UniProt P06241).
Assay [13] concerns the target Dual specificity protein kinase CLK4 (Homo sapiens, UniProt Q9HAZ1).
Assay [14] deals with Serine/threonine-protein kinase TAO1 (Homo sapiens, UniProt Q7L7X3).
Assay [15] deals with Cyclin-dependent kinase 5 (Homo sapiens, UniProt Q00535).
Cyclin-dependent kinase 5, sequence (Q00535 whole entry): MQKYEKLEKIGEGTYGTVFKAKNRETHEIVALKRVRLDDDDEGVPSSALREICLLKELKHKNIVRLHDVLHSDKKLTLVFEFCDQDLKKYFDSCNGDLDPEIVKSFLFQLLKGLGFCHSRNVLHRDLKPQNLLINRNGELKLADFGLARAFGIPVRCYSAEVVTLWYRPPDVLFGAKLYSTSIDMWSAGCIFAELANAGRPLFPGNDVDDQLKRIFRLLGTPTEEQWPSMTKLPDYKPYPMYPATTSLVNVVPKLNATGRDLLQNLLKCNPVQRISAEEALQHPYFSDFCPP
Assay [16] has as its target Serine/threonine-protein kinase D3 (Homo sapiens, UniProt O94806).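 Also: determined within a kinase panel screen, with PRKCN as the panel member.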
Assay [17] has as its target Calcium/calmodulin-dependent protein kinase type II subunit alpha (Homo sapiens, UniProt Q9UQM7). In words: Navigating the Kinome. Panel member name: CAMK2A.
Assay [18] addresses Vascular endothelial growth factor receptor 1 (Homo sapiens, UniProt P17948).
Assay [19] addresses Tyrosine-protein kinase JAK2 (Homo sapiens, UniProt O60674).
The target of assay [20] is Leukocyte tyrosine kinase receptor (Homo sapiens, UniProt P29376). Briefly: Navigating the Kinome. Panel member name: LTK.
Assay [21] addresses Mitogen-activated protein kinase 8 (Homo sapiens, UniProt P45983).
The target of assay [22] is cAMP-dependent protein kinase catalytic subunit alpha (Homo sapiens, UniProt P17612).
In assay [23] the target is Proto-oncogene tyrosine-protein kinase receptor Ret (Homo sapiens, UniProt P07949).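 Also: measured within a kinome-wide profiling panel, RET as the panel member.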
Assay [24] concerns the target Mitogen-activated protein kinase kinase kinase kinase 4 (Homo sapiens, UniProt O95819).
Assay [25] addresses 5'-AMP-activated protein kinase catalytic subunit alpha-1 (Homo sapiens, UniProt Q13131).
Assay [26] addresses Hepatocyte growth factor receptor (Homo sapiens, UniProt P08581).
The target in assay [27] is Protein kinase C theta type (Homo sapiens, UniProt Q04759). Briefly: Navigating the Kinome. Panel member name: PRKCQ.
Assay [28] has as its target Dual specificity mitogen-activated protein kinase kinase 2 (Homo sapiens, UniProt P36507). In words: Navigating the Kinome. Panel member name: MAP2K2.
The target of the next assay is Aurora kinase B (Homo sapiens, UniProt Q96GD4).
The target of assay [29] is Dual specificity protein kinase CLK2 (Homo sapiens, UniProt P49760).
Assay [30] addresses BDNF/NT-3 growth factors receptor (Homo sapiens, UniProt Q16620).
The target of assay [31] is Mitogen-activated protein kinase 14 (Homo sapiens, UniProt Q16539).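 Also: part of a kinome-wide panel, MAPK14 entry.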
Assay [32] concerns the target G protein-coupled receptor kinase 5 (Homo sapiens, UniProt P34947). Briefly: Navigating the Kinome. Panel member name: GPRK5.
For assay [33], the target named is Cyclin-dependent kinase 7 (Homo sapiens, UniProt P50613).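 Also: value comes from a kinome-wide kinase profiling panel in which CDK7 is one member.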
A further assay has as its target LIM domain kinase 1 (Homo sapiens, UniProt P53667). In words: Navigating the Kinome. Panel member name: LIMK1.
For the next assay, the target named is Activin receptor type-1 (Homo sapiens, UniProt Q04771). Briefly: Navigating the Kinome. Panel member name: ACVR1.
Assay [34] deals with Cyclin-dependent kinase 9 (Homo sapiens, UniProt P50750).
For assay [35], the target named is Tyrosine-protein kinase JAK3 (Homo sapiens, UniProt P52333).
Assay [36] concerns the target Serine/threonine-protein kinase Nek2 (Homo sapiens, UniProt P51955).
In assay [37] the target is Rho-associated protein kinase 1 (Homo sapiens, UniProt Q13464).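 Also: measured within a broad kinome-wide panel profiling many kinases.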
Assay [38] concerns the target Mitogen-activated protein kinase kinase kinase kinase 2 (Homo sapiens, UniProt Q12851).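 Also: measured as one member of a kinome-wide kinase panel, with MAP4K2 as the panel entry.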
Assay [39] addresses Cyclin-dependent kinase 8 (Homo sapiens, UniProt P49336). In words: Navigating the Kinome. Panel member name: CDK8.
The target in assay [40] is Leucine-rich repeat serine/threonine-protein kinase 2 (Homo sapiens, UniProt Q5S007).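 Also: value from a broad kinome-wide panel profiling study in which LRRK2 was one of the kinases tested.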
Assay [41] concerns the target Dual specificity mitogen-activated protein kinase kinase 1 (Homo sapiens, UniProt Q02750). In words: Navigating the Kinome. Panel member name: MAP2K1.
In assay [42] the target is Ribosomal protein S6 kinase alpha-3 (Homo sapiens, UniProt P51812).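 Also: measured within a kinome-wide profiling panel.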
Ribosomal protein S6 kinase alpha-3, sequence (P51812 whole entry): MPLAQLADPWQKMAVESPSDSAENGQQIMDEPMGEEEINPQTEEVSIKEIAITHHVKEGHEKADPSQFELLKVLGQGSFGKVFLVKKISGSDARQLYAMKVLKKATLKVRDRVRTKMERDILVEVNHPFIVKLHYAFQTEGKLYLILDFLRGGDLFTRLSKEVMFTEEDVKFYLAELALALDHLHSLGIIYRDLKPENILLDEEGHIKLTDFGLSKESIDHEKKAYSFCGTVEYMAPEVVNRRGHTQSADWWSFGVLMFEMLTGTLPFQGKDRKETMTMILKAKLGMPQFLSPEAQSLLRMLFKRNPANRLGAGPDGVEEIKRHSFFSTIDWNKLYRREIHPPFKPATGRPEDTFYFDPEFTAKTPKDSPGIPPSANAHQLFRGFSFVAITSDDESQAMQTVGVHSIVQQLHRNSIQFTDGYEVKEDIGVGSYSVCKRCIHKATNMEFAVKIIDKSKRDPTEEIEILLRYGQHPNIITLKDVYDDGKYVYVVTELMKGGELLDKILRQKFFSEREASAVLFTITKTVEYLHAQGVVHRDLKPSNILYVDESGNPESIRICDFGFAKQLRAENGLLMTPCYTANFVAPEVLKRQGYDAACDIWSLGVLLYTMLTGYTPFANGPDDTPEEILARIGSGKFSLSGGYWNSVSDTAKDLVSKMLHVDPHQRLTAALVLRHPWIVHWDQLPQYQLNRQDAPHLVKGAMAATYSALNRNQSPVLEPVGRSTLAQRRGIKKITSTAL
Another assay addresses Aurora kinase A (Homo sapiens, UniProt O14965).
Assay [43] concerns the target Mitogen-activated protein kinase 9 (Homo sapiens, UniProt P45984).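 Also: value from a kinome panel profiling assay, MAPK9 panel entry.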
Assay [44] has as its target Vascular endothelial growth factor receptor 2 (Homo sapiens, UniProt P35968).
Assay [45] has as its target Tyrosine-protein kinase ABL1 (Homo sapiens, UniProt P00519).
Assay [46] concerns the target Inhibitor of nuclear factor kappa-B kinase subunit epsilon (Homo sapiens, UniProt Q14164). In words: Navigating the Kinome. Panel member name: IKBKE.
Assay [47] has as its target ALK tyrosine kinase receptor (Homo sapiens, UniProt Q9UM73).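 Also: ALK tested as one member of a kinase panel screen.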
The next assay addresses Activated CDC42 kinase 1 (Homo sapiens, UniProt Q07912). Briefly: Navigating the Kinome. Panel member name: ACK1.
In assay [48] the target is Glycogen synthase kinase-3 beta (Homo sapiens, UniProt P49841).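 Also: value comes from a broad kinome profiling panel, with GSK3B as the panel member.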
Assay [49] deals with Casein kinase I isoform alpha (Homo sapiens, UniProt P48729).
The target of assay [50] is Platelet-derived growth factor receptor alpha (Homo sapiens, UniProt P16234). In words: Navigating the Kinome. Panel member name: PDGFRA.
Platelet-derived growth factor receptor alpha, sequence (P16234 whole entry): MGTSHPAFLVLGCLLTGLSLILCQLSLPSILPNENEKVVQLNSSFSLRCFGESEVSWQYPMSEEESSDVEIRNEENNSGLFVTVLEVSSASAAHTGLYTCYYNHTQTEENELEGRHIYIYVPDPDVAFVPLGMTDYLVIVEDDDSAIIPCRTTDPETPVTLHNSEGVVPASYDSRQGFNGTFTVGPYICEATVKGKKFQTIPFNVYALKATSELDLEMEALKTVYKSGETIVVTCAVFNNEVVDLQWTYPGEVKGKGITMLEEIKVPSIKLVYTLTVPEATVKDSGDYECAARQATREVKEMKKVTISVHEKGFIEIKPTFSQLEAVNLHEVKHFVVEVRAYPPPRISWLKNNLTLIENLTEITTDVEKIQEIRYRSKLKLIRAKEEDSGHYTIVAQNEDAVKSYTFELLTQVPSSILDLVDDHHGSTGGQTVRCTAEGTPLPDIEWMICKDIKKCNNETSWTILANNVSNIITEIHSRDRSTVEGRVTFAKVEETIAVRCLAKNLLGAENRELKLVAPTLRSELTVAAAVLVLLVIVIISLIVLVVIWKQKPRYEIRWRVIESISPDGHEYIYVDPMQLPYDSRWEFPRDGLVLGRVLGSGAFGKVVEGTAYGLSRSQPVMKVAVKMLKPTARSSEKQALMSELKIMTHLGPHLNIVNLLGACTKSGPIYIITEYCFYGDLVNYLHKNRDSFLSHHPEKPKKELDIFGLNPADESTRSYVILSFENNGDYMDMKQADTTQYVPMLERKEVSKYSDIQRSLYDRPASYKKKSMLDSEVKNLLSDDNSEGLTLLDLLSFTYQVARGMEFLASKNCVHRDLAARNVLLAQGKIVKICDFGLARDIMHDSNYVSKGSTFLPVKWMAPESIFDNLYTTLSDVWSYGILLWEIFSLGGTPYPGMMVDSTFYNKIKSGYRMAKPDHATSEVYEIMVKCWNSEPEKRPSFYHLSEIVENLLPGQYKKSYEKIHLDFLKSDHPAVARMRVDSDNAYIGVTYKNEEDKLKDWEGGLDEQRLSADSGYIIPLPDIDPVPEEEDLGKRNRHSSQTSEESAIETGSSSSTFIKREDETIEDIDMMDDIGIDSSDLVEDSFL
In assay [51] the target is Serine/threonine-protein kinase pim-1 (Homo sapiens, UniProt P11309).
Serine/threonine-protein kinase pim-1, sequence (P11309 whole entry): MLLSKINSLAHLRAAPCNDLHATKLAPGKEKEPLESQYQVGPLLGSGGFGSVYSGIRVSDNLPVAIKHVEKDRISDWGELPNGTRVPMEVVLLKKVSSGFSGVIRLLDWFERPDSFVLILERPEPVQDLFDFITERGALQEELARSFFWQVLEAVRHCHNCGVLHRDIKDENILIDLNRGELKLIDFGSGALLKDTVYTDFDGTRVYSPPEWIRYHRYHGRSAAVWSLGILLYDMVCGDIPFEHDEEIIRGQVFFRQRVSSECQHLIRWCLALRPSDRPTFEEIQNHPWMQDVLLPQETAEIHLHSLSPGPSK
Assay [52] deals with Serine/threonine-protein kinase Chk1 (Homo sapiens, UniProt O14757).
Serine/threonine-protein kinase Chk1, sequence (O14757 whole entry): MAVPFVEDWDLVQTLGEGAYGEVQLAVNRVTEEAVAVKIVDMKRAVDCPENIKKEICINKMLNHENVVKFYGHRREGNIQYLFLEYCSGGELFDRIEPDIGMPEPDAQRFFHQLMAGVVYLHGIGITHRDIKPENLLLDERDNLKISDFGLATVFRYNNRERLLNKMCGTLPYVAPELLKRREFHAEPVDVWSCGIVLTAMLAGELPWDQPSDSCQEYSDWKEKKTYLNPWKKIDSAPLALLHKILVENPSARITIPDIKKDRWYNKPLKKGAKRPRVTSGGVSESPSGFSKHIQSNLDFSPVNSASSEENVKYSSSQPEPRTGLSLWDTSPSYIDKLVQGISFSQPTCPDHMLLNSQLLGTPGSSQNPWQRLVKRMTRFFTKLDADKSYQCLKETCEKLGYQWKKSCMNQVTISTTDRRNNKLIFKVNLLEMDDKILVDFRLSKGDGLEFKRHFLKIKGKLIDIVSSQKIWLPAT
Assay [53] has as its target Death-associated protein kinase 3 (Homo sapiens, UniProt O43293).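 Also: measured as one member of a kinome-wide profiling panel.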
Assay [54] has as its target Tyrosine-protein kinase receptor TYRO3 (Homo sapiens, UniProt Q06418).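 Also: TYRO3 value obtained as one member of a kinome-wide profiling panel.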
For assay [55], the target named is Multidrug resistance protein CDR2 (Candida albicans (strain SC5314 / ATCC MYA-2876) (Yeast), UniProt P78595). In words: CaCDR2 efflux pump inhibitors in yeast, dose response, S. cerevisiae AD1-8u, singleplex, Cherry Pick1 hits (AID 588604).
Assay [56] addresses Melanin-concentrating hormone receptor 1 (Homo sapiens, UniProt Q99705). Briefly: Late-stage fluorescence-based counterscreen for antagonists of the G-protein coupled receptor 7 (GPR7): cell-based dose response assay to identify antagonists of the melanin-concentrating hormone receptor 1 (MCHR1) Set 5. (A counterscreen serves to expose hits that act by an unwanted route or on another target.)

Assay [57] addresses T1, Neuropeptides B/W receptor type 1 (Homo sapiens, UniProt P48145).
T1 sequence (P48145 whole entry): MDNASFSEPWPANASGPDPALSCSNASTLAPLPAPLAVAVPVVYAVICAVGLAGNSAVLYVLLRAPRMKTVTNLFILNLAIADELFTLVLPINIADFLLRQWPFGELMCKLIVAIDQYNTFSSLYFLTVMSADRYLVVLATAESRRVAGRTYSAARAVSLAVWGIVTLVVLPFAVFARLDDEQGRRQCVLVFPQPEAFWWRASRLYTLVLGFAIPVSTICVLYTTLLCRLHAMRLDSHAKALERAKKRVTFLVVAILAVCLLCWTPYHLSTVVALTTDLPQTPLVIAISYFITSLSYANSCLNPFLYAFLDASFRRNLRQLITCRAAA
Briefly: GPR7 antagonist potency, late-stage follow-up, cell-based, fluorescence, dose response, set 5 (AID 588566).

One may read the Ki as a dissociation constant, usually derived from enzyme kinetics or from competition with a known ligand. The term EC50 denotes the concentration needed to bring the measured effect to its halfway point. The term IC50 denotes the point on the concentration scale where inhibition reaches its midpoint.

The structures appear in SMILES notation. The source made the active and inactive calls. Bounds are passed on as bounds.

Cyclin-dependent kinase 8, sequence (P49336 whole entry): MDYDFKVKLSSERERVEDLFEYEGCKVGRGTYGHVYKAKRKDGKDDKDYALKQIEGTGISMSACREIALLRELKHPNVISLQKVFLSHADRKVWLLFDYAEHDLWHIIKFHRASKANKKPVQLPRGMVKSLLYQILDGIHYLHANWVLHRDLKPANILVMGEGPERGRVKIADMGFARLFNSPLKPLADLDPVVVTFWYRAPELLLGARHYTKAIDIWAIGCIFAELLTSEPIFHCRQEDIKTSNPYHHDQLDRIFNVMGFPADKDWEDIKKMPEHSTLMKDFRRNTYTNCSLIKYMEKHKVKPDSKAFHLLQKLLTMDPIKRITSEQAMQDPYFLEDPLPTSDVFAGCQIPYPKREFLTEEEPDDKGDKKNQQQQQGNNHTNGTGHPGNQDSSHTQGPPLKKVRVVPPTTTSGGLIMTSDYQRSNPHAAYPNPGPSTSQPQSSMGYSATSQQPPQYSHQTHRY
Dual specificity tyrosine-phosphorylation-regulated kinase 1B, sequence (Q9Y463 whole entry): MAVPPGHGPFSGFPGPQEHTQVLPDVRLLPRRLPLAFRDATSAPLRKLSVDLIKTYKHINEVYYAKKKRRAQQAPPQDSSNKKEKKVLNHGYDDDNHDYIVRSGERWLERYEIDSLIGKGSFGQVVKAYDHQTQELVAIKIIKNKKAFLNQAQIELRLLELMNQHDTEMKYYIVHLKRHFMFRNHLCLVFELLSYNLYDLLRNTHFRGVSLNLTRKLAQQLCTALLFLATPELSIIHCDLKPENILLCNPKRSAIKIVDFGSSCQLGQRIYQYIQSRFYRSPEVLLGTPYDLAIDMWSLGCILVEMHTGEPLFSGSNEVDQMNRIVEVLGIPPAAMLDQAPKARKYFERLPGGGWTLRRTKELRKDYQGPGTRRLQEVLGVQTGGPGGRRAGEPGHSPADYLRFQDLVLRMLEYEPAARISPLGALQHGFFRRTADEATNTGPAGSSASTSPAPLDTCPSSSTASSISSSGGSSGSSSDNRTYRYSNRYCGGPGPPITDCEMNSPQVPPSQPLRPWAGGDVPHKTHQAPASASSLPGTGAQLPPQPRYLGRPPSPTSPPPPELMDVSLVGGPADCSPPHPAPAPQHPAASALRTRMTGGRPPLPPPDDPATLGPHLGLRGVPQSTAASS
Mitogen-activated protein kinase 9, sequence (P45984 whole entry): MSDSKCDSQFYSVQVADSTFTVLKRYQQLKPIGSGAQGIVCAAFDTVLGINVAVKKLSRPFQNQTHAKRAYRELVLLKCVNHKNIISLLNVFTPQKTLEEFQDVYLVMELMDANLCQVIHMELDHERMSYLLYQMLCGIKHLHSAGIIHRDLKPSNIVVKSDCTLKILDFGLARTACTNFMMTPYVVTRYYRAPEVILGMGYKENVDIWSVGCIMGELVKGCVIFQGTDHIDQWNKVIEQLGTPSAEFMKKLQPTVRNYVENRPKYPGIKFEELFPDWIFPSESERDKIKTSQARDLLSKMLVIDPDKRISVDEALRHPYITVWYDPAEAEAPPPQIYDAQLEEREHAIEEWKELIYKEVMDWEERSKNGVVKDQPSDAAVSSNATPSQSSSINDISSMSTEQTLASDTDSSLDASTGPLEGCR

Regarding `COc1ccccc1CNC(=N)Nc1nccc(-c2cccs2)n1`, the Ki in [1] is 1.58 µM (active); in assay [2], > 2.51 µM (inactive); in assay [3] it was > 3.16 µM (inactive); in assay [4] it was > 3.98 µM (inactive); in assay [5], > 3.16 µM (inactive); in assay [6] it was 0.398 µM (active). For the same molecule, the Ki is > 3.16 µM (inactive) in assay [7]; > 5.01 µM (inactive) in assay [8]; > 2.51 µM (inactive) in assay [9]; 1.26 µM (active) in assay [10]; > 3.98 µM (inactive) in assay [11]; > 6.31 µM (inactive) in [12]. Besides, the inhibitory constant (Ki) in assay [13] is 0.316 µM (active); in [14], 5.01 µM (active); in [15], 0.126 µM (active); in assay [16], > 3.98 µM (inactive); in [17], > 3.98 µM (inactive); in [18] it was > 3.98 µM (inactive). For the same molecule, the Ki in assay [19] was > 2.51 µM (inactive); in assay [20] it was > 2.51 µM (inactive); in [21] it was > 5.01 µM (inactive); in assay [22], > 1.26 µM (inactive); in assay [23], > 3.16 µM (inactive); in [24] it was > 5.01 µM (inactive). In addition, the Ki in [25] was > 3.16 µM (inactive); in [26], > 2.51 µM (inactive); in assay [27] it was > 2.51 µM (inactive); in assay [28] it was > 3.98 µM (inactive); on Aurora kinase B it was > 3.98 µM (inactive); in [29] it was 3.16 µM (active). Moreover, the Ki in [30] was > 3.98 µM (inactive); in assay [31] it was > 3.98 µM (inactive); in assay [32] it was > 3.98 µM (inactive); in assay [33] it was > 3.98 µM (inactive); on LIM domain kinase 1 it was > 3.16 µM (inactive); on Activin receptor type-1 it was > 3.98 µM (inactive). In addition, the inhibition constant (Ki) in [34] is 0.1 µM (active); in assay [35], > 5.01 µM (inactive); in assay [36], > 3.16 µM (inactive); in assay [37], > 3.98 µM (inactive); in assay [38], > 2.51 µM (inactive); in assay [39] it was > 3.98 µM (inactive). Besides, the Ki in assay [40] was > 2.51 µM (inactive); in assay [41], > 3.16 µM (inactive); in assay [42], > 3.98 µM (inactive); at Aurora kinase A it was > 1.58 µM (inactive); in [43] it was > 3.98 µM (inactive); in assay [44], > 2.51 µM (inactive). Further, the Ki in assay [45] is > 2.51 µM (inactive); in [46] it was > 3.16 µM (inactive); in assay [47], > 6.31 µM (inactive); on Activated CDC42 kinase 1, > 3.98 µM (inactive); in assay [48] it was 2.51 µM (active); in assay [49], > 3.98 µM (inactive). For the same molecule, the Ki in assay [50] is > 2.51 µM (inactive); in assay [51], > 6.31 µM (inactive); in assay [52] it was > 3.16 µM (inactive); in assay [53], > 5.01 µM (inactive); in assay [54], > 3.16 µM (inactive).
Consider `O=C(/C=C/c1ccccc1[N+](=O)[O-])NCCc1ccc(F)cc1`, for which, in assay [55], the half-maximal effective concentration (EC50) is 25.8 µM (active).
For the molecule `COc1ccc([S+]([O-])c2c(Cl)cnn(Cc3cccc4ccccc34)c2=O)cc1` (configuration not stated), the figures for the IC50 in [56] and in assay [57] were 5.86 µM (active) and 6.18 µM (active), respectively.

The record behind these values is ChEMBL document CHEMBL1201862, “PubChem BioAssay data set” (2004).
